From patent publication US20210038668A1, “TRADITIONAL CHINESE MEDICINE COMPOSITION FOR PREVENTING AND/OR TREATING ISCHEMIC REPERFUSION INJURY” (TASLY PHARMACEUTICAL GROUP CO., LTD., priority 2018, published 2021) come the findings set out here.

Assay [1] has as its system mice with carotid artery thrombus. Put plainly: 18-Score Modified Neurological Severity Score, mice. Format: in vivo, C57BL/6 mice. Here is the method: Neurological scoring was conducted to each group of […] after reperfused for 3 hours and 24 hours based upon scoring standards (18 scores), as shown in table 2:
Another scoring method is introduced hereafter. Modified neurological severity scores, mNSS, the score is within the range of 0-18. The scoring method is referring to 1.4 of Example 1.
18-Score Modified Neurological Severity Score (normal mice=0; the higher the score is, the more severe the nerve injury is), and a 15-score standard (normal mice=15, dead mice=0) are applied.

The test system is the same in assay [2]. Put plainly: Neurological scoring, 15-score standard, mice. Type of assay: in vivo, C57BL/6 mice. Conditions: 24 hours after administration; normal = 15, dead = 0; tPA 10 mg/kg alone; T541 20 mg/kg, T141 12 mg/kg, T582 15 mg/kg each + tPA 10 mg/kg. How it is done: Neurological scoring was conducted to each group of mice after reperfused for 24 hours based upon scoring standards (15 scores) (Garcia J H et al. Stroke. 1995; 26:627-634.) with slight modification:
Mice capacity of autonomic activity: mice were put into a 25×15 cm cage to record their motion trails within 3 minutes; mice incapable of moving basically were denoted as 0; mice with little activity and not touching any wall of the cage were denoted as 1; mice touching any […] were denoted as 2; mice touching three walls and above were denoted as 3;
Mice limbs symmetry experiment: mice tails were lifted to observe the motion trails of their bodies; mice with completely asymmetric bodies were denoted as 0; mice with almost asymmetrical bodies were denoted as 1; mice with moderately asymmetrical bodies were denoted as 2; mice with almost symmetric bodies were denoted as 3;
Measurement of open field test: free motion of mice was observed; mice without any motion were denoted as 0; mice circling around were denoted as 1; mice tilting to one side to make curvilinear motion were denoted as 2; mice making rectilinear motion were denoted as 3; […]
Mice neurological scoring: a sum of the individual score of the above five experiments is calculated; 15 scores denote normal mice and 0 denote dead mice.

For the next assay, the system named is Claudin-5. In words: Western blotting of Claudin-5, endothelial cells after hypoxia/reoxygenation. Type of assay: cell-based. Conditions: rat brain endothelial cells, hypoxia 4.5 h/reoxygenation 3 h; tPA 20 mcg/ml alone (model group); T541 400 mcg/ml + tPA 20 mcg/ml. The source says: Establishment of rat brain endothelial cell H/R model: rat brain endothelial cells were purchased from ATCC, and then subcultured to 5-6 generations in normal conditions for further experiment. […]
In general terms: In western blotting, separated proteins are transferred to a membrane and probed.

The test system of assay [3] is ATP, ADP and AMP of cerebral cortex in ischemic penumbra. In words: ELISA of ATP, ADP and AMP in brain tissue. Format: in vivo, C57BL/6 mice. The note with it: brain tissue 24 hours after administration. The source says:
To compare the therapeutical effect on reperfusion injury caused by tPA thrombolysis between the traditional Chinese medicinal composition of the present invention and each ingredient (total saponins of Astragalus, the experiment was divided into the following group (tPA is combined with T541, individual ingredient thereof and compatibility of any two ingredients) specifically as follows: tPA+total saponins of Astragalus (tPA+HQ), tPA+ salvianolic acids (tPA+DS), tPA+Panax notoginseng saponins (tPA+SQ), tPA+ total saponins of Astragalus+salvianolic acids (tPA+HQ+DS), tPA+ total saponins of Astragalus+Panax notoginseng saponins (tPA+HQ+SQ), tPA+ salvianolic acids+Panax notoginseng saponins (tPA+DS+SQ) and tPA+T541. Normal saline served as an isovolumetric control. The usage number in each group is 6.
ELISA adsorption kit was used to measure the change on the content of MDA, 8-hydroxyl-2′-deoxyguanosine (8-OHdG), adenosine triphosphate (ATP), adenosine diphosphate (ADP) and adenosine monophosphate (AMP) in the penumbra field of brain tissue cortex of the mode, and the change on the activity of mitochondrial complexes I, II, IV and V. 6 samples were used to repeat the independent experiment for at least three times for each group of data.
A general note: In an ELISA, binding on a coated surface is turned into a signal by an enzyme label.

Setting [4] is: tPA 10 mg/kg alone or + T541 20 mg/kg or ingredients at Table 7 doses.

As for “tPA: tissue-type plasminogen activator (tPA) for thrombolysis”, the “18-Score Modified Neurological Severity Score” value in assay [1] (24 hours after administration, normal = 0, tPA 10 mg/kg alone, T541 20 mg/kg, T141 12 mg/kg, T582 15 mg/kg each + tPA 10 mg/kg) was determined as 7.45 ± 0.73. Also, in assay [1] (tPA alone, low/medium/high-dose T541 + tPA), the “neurological scoring 24 hours after administration (in words)” value is given as “may not improve the neurological scoring”. For the same substance, the “Neurological scoring, 15-score standard” value in assay [2] is reported as 5.82 ± 0.52. In addition, in the assay on Claudin-5, the Claudin-5/β-actin amounted to 0.40 ± 0.06. Besides, in assay [3] (setting [4]), the ADP amounted to 2.51 ± 0.24, the ADP/ATP came to 2.45 ± 0.10, the AMP is listed as 2.66 ± 0.32 and the AMP/ATP was determined as 2.68 ± 0.34. Also, in assay [3] (tPA 10 mg/kg alone or + T541 20 mg/kg or ingredients at Table 7 doses (Astragalus saponins 10, Panax notoginseng saponins 2, salvianolic acids 8, in pairs 2 mg/kg)), the ATP was determined as 1.05 ± 0.13.
